Laboratory results reported in patent US12486259B2, “FXR agonist having pyrazine structure, and preparation method and use” (JIANGSU TASLY DIYI PHARMACEUTICAL CO., LTD., priority 2020, dated 2025).

Key:
in vitro = conditions: human; for efflux ratio: Caco-2; for Papp A→B: Caco-2, Papp A-B; for Papp B→A: Caco-2, Papp B-A
Procedure: (§1) The bi-directional transport of target compounds from apical side (AP) to basolateral side (BL) and from BL side to AP side is studied by using human colon adenocarcinoma cell line Caco-2 monolayer model. The transport parameters, apparent permeability coefficient (Papp) and efflux ratio are calculated by quantitative analysis with high performance liquid chromatography (HPLC).

[1] = test system: human colon adenocarcinoma cell line Caco-2 monolayer model; experiment: in vitro
Procedure: as §1

[2] = biological target: T1, GST-labeled recombinant human FXR protein (Homo sapiens, UniProt Q96RI1); experiment: Agonistic activity on FXR receptor (GST-FXR / SRC-1 bead assay, protein level); type: biochemical; conditions: 0.4 nM FXR, 30 nM SRC-1, protein level
T1 construct: purchased Invitroren (so in the source)
T1 sequence (Q96RI1 262-486 limits assumed): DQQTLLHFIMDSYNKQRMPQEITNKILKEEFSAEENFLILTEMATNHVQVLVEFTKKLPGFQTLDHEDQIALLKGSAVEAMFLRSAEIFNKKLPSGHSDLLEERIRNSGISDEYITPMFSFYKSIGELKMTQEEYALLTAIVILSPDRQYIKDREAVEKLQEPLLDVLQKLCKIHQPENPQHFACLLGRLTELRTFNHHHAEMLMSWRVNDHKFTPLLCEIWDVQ
T1 sequence (Q15788 676-700 partner limits assumed): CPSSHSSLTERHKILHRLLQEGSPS
Procedure: Experimental procedures: FXR (GST-labeled recombinant human FXR protein, manufacturer: Invitroren, Item number: PV4835) and SRC-1 (steroid receptor co-activator-1) are thawed on ice. Three solutions of ABC are prepared by a buffer solution, solution A, 0.4 n M FXR and 30 nM SRC-1; solution B, 10 ug/ml Acceptor Beads; solution C, 10 ug/ml Donor Beads. Solution A is added to the plate at 15 uL per well. It is incubated at room temperature for 1 hour. Solution B is added to the plate at 7.5 uL per well. It is incubated at room temperature for 1 hour. Solution C is added to the plate at 7.5 uL per well. It is incubated at room temperature for 1 hour. It is read from the microplate reader Envision. The data are curve fitted by using Prism 5.0 to calculate the EC50.

FXR = biological target: T2, FXR (Homo sapiens, UniProt Q96RI1); experiment: Intracellular FXR-TR-FRET experiment (pBIND-FXR / pG5Luc dual luciferase); type: cell-based; conditions: cellular level, 18 hours with compound
T2 construct: expressed in transfected cells
T2 sequence (Q96RI1 1-486): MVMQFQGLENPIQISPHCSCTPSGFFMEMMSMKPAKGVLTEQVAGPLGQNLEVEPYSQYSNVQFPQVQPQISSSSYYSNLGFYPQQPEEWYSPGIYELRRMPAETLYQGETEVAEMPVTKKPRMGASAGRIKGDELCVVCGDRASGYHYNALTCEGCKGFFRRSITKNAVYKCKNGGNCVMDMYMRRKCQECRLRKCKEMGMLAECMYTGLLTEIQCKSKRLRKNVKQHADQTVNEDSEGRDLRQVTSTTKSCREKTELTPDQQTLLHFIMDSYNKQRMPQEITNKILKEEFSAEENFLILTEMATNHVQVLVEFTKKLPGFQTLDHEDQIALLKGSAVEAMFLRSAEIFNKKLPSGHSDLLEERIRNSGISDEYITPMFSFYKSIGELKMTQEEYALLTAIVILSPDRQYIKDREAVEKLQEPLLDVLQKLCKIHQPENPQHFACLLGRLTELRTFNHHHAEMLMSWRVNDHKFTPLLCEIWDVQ
Procedure: • 1. Cell culture: a, trypsinize dishes and seed cells are taken with appropriate density in 10 ml of complete […] at 37° C. b. Cells are incubated for 24 hours in 5% CO2 and humidified. • 2. Cell inoculation and transfection: FuGENE HD transfection reagent is used as a transfection reagent. • a. The transfection mixture is prepared according to the following procedure:
• b. The tube is tapped vigorously to mix the contents. The mixture is incubated at room temperature for 15 minutes. • c. Discs are trypsinized and cell density is determined. • d. The cytolymph is diluted to the desired volume at a density of 500,000 cells/ml (100 ul/well for 96-well plate). • e. The required volume of previously prepared transfection mixture is added to both cytolymph, and then 100 ul/well of cytolymph is dispensed onto the assay plate. • f. The assay plate is incubated under humidified conditions at 37° C., 5% CO2 for 24 hours. • 3. Compound preparation: • a. Compound stocks are prepared with a FXR working concentration of 10 mM and then diluted 3-fold in 100% DMSO. • b. 10 ul compound is added to 90 ul complete medium. • c. 5 ul compound solution is added to each well. • d. The plate is incubated at 37° C., 5% CO2 and humidified for 18 hours. • 4. Dual luciferase assay: the firefly and Renilla luciferase signals are analyzed by Dual Luciferase Reporter Assay System from Promega. Envision is used as a photometer. • 5. Result calculation: data values are normalized by dividing the firefly signal by the Renilla signal. “F/R” means “firefly/Renilla”. This normalization eliminates differences in different cell numbers and transfection efficiencies in each well. The % Activation value is calculated. The % Activation value is calculated by the following formula.
X is the “F/R” value for each concentration point. The minimum value is the average “F/R” value for the no compound control. The maximum value is the average “F/R” value of the reference compound control. • 6.

[3] = literature; cited from earlier work
[4] = Caco-2, Recovery rate A-B, Average
[5] = Caco-2, Recovery rate A-B, Sample-01
[6] = Caco-2, Recovery rate A-B, Sample-02
[7] = Caco-2 cell line (21 days), Table 5

Row | efflux ratio (in vitro) | Papp A→B (in vitro) | Papp A→B (in vitro; Average) | Papp A→B (in vitro; Sample-01) | Papp A→B (in vitro; Sample-02) | Papp B→A (in vitro) | recovery (in vitro; [4]) | recovery (in vitro; [5]) | recovery (in vitro; [6]) | membrane permeation in Caco-2 (in words) ([1]; Caco-2) | EC50 [2] | EC50 (FXR) | SMILES | also measured
1 | 16.9 | 0.58 ×10⁻⁶ cm/s | 0.97 ×10⁻⁶ cm/s | 1.01 ×10⁻⁶ cm/s | 0.94 ×10⁻⁶ cm/s | 9.89 ×10⁻⁶ cm/s | 99% | 99.6% | 98.5% | poor effect | 0.24 µM | 1.51 µM | Cc1cc(C(=O)O)cc(C2CC(O)(c3cnc(OCc4c(-c5c(Cl)cccc5Cl)noc4C4CC4)cn3)C2)c1 (centres unmarked) [TM-08, 3-(3-(5-((5-cyclopropyl-3-(2,6-dichlorophenyl)isoxazol-4-yl)methoxy)pyrazine-2-yl)-3-hydroxycyclobutyl)-5-methyl benzoic acid] | 
2 | > 76.8 | < 0.15 ×10⁻⁶ cm/s | < 0.15 ×10⁻⁶ cm/s | < 0.16 ×10⁻⁶ cm/s | < 0.14 ×10⁻⁶ cm/s | 11.6 ×10⁻⁶ cm/s | < 21.8% | < 27.2% | < 16.4% | poor permeation | 1.09 µM | 1.49 µM | O=C(O)c1cccc(C2CC(O)(c3ccc(OCc4c(-c5c(Cl)cccc5Cl)noc4C4CC4)cc3Cl)C2)c1 (centres unmarked) [Compound M3, reference compound] | Papp B→A (in vitro; Average): 11.6 ×10⁻⁶ cm/s; Papp B→A (in vitro; Sample-01): 13.3 ×10⁻⁶ cm/s; Papp B→A (in vitro; Sample-02): 9.96 ×10⁻⁶ cm/s; recovery (in vitro; Caco-2, Recovery rate B-A, Average): 36%; recovery (in vitro; Caco-2, Recovery rate B-A, Sample-01): 36.3%; recovery (in vitro; Caco-2, Recovery rate B-A, Sample-02): 35.6%; Papp A-B, Average ([1]; human, Caco-2): <0.15 10−6 cm/s
3 |  |  |  |  |  |  |  |  |  |  |  |  | CC(C)c1onc(-c2c(Cl)cccc2Cl)c1COc1ccc(/C=C/c2cccc(C(=O)O)c2)c(Cl)c1 [GW4064] | oral availability [3]: 10%; t½ [3]: 3.5 h
4 | > 263 |  |  |  |  |  |  |  |  |  |  |  | C[C@H]1O[C@@H](O[C@H]2[C@@H](O)C[C@H](O[C@H]3[C@@H](O)C[C@H](O[C@H]4CC[C@@]5(C)[C@H](CC[C@@H]6[C@@H]5C[C@@H](O)[C@]5(C)[C@@H](C7=CC(=O)OC7)CC[C@]65O)C4)O[C@@H]3C)O[C@@H]2C)C[C@H](O)[C@@H]1O [Digoxin, digoxin, reference compound] | Papp A→B (in vitro; Average, Caco-2, A-B, Average (Table 3)): < 0.04 ×10⁻⁶ cm/s; Papp A→B (in vitro; [7]): < 0.04 ×10⁻⁶ cm/s; Papp A→B (in vitro; Sample-01, Caco-2, A-B, Sample-01): < 0.05 ×10⁻⁶ cm/s; Papp A→B (in vitro; Sample-02, Caco-2, A-B, Sample-02): < 0.04 ×10⁻⁶ cm/s; Papp B→A (in vitro; Average, Caco-2, B-A, Average (Table 3)): 11.6 ×10⁻⁶ cm/s; Papp B→A (in vitro; [7]): 11.6 ×10⁻⁶ cm/s; Papp B→A (in vitro; Sample-01, Caco-2, B-A, Sample-01): 11.7 ×10⁻⁶ cm/s; Papp B→A (in vitro; Sample-02, Caco-2, B-A, Sample-02): 11.5 ×10⁻⁶ cm/s; recovery (in vitro; Caco-2, Recovery rate A-B, Average, Caco-2, A-B): < 87%; recovery (in vitro; Caco-2, Recovery rate A-B, Sample-01, Caco-2, A-B, Sample-01): < 85.2%; recovery (in vitro; Caco-2, Recovery rate A-B, Sample-02, Caco-2, A-B, Sample-02): < 88.7%; recovery (in vitro; Caco-2, Recovery rate B-A, Average, Caco-2, B-A): 94.6%; recovery (in vitro; Caco-2, Recovery rate B-A, Sample-01, Caco-2, B-A, Sample-01): 93.7%; recovery (in vitro; Caco-2, Recovery rate B-A, Sample-02, Caco-2, B-A, Sample-02): 95.4%; Papp A-B, Average ([1]; Caco-2, A-B, Average (Table 3)): <0.04 10−6 cm/s; Efflux rate = Papp B-A/Papp A-B ([1]; Caco-2 cell line (21 days)): > 262.93
